According to PubChem BioAssay AID2060489 (Molecular Pharmacology Branch, DTP, NCI, 2025):

Tested on: 922993-354-T-J3-PDC complex spheroids, viability
Test: Anticancer human tumor 922993-354-T-J3-PDC patient-derived endometrial carcinoma cell line growth inhibition [GQUAD]
Conditions: for IC50: curve of first compound; for viability, T/C: stronger effect = lower value
Method in brief: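 Tumor cells were grown as complex spheroids with HUVEC endothelial cells and mesenchymal stem cells as stroma. G-quadruplex stabilizers were combined with targeted agents over half-log dilutions from near the clinical Cmax, or from 10 microM.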

[1] = second compound 0.0316 µM, first compound 0.0316 µM
[2] = second compound 0.0316 µM, first compound 0.316 µM
[3] = second compound 0.1 µM, first compound 0.0316 µM
[4] = second compound 0.1 µM, first compound 0.316 µM
[5] = second compound 0.316 µM, first compound 0.0316 µM
[6] = second compound 0.316 µM, first compound 0.316 µM
[7] = second compound 1 µM, first compound 0.0316 µM
[8] = second compound 1 µM, first compound 0.316 µM
[9] = second compound 3.16 µM, first compound 0.0316 µM
[10] = second compound 3.16 µM, first compound 0.316 µM
[11] = second compound 10 µM, first compound 0.0316 µM
[12] = second compound 10 µM, first compound 0.316 µM
[13] = second compound 0.0316 µM, first compound 0.000999 µM
[14] = second compound 0.0316 µM, first compound 0.00316 µM
[15] = second compound 0.0316 µM, first compound 0.00999 µM
[16] = second compound 0.0316 µM, first compound 0.0999 µM
[17] = second compound 0.1 µM, first compound 0.000999 µM
[18] = second compound 0.1 µM, first compound 0.00316 µM
[19] = second compound 0.1 µM, first compound 0.00999 µM
[20] = second compound 0.1 µM, first compound 0.0999 µM
[21] = second compound 0.316 µM, first compound 0.000999 µM
[22] = second compound 0.316 µM, first compound 0.00316 µM
[23] = second compound 0.316 µM, first compound 0.00999 µM
[24] = second compound 0.316 µM, first compound 0.0999 µM
[25] = second compound 1 µM, first compound 0.000999 µM
[26] = second compound 1 µM, first compound 0.00316 µM
[27] = second compound 1 µM, first compound 0.00999 µM
[28] = second compound 1 µM, first compound 0.0999 µM
[29] = second compound 3.16 µM, first compound 0.000999 µM
[30] = second compound 3.16 µM, first compound 0.00316 µM
[31] = second compound 3.16 µM, first compound 0.00999 µM
[32] = second compound 3.16 µM, first compound 0.0999 µM
[33] = second compound 10 µM, first compound 0.000999 µM
[34] = second compound 10 µM, first compound 0.00316 µM
[35] = second compound 10 µM, first compound 0.00999 µM
[36] = second compound 10 µM, first compound 0.0999 µM
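Also: spheroids exposed to compounds for seven days.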
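For viability, T/C in this document: 100% = DMSO vehicle control viability.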

C#Cc1c(F)ccc2cc(O)cc(-c3ncc4c(N5CC6CCC(C5)N6)nc(OCC56CCCN5CC(F)C6)nc4c3F)c12 (stereo unspecified) + CN(C)c1ccc(Nc2c3ccc(NC(=O)CCN4CCCC4)cc3nc3cc(NC(=O)CCN4CCCC4)ccc23)cc1
IC50 (second compound 0.0316 µM): > 10000 nM
IC50 (second compound 0.1 µM): > 10000 nM
IC50 (second compound 0.316 µM): > 10000 nM
IC50 (second compound 1 µM): > 10000 nM
IC50 (second compound 3.16 µM): > 10000 nM
IC50 (second compound 10 µM): > 10000 nM
viability, T/C [1]: 93.8%
viability, T/C (second compound 0.0316 µM, first compound 0.1 µM): 78.5%
viability, T/C [2]: 97.2%
viability, T/C (second compound 0.0316 µM, first compound 1 µM): 86.9%
viability, T/C (second compound 0.0316 µM, first compound 3.16 µM): 95.3%
viability, T/C (second compound 0.0316 µM, first compound 10 µM): 81.5%
viability, T/C [3]: 99.4%
viability, T/C (second compound 0.1 µM, first compound 0.1 µM): 89.3%
viability, T/C [4]: 94.3%
viability, T/C (second compound 0.1 µM, first compound 1 µM): 100%
viability, T/C (second compound 0.1 µM, first compound 3.16 µM): 82.3%
viability, T/C (second compound 0.1 µM, first compound 10 µM): 95.9%
viability, T/C [5]: 71.9%
viability, T/C (second compound 0.316 µM, first compound 0.1 µM): 97.4%
viability, T/C [6]: 97.7%
viability, T/C (second compound 0.316 µM, first compound 1 µM): 81%
viability, T/C (second compound 0.316 µM, first compound 3.16 µM): 87%
viability, T/C (second compound 0.316 µM, first compound 10 µM): 76%
viability, T/C [7]: 71.4%
viability, T/C (second compound 1 µM, first compound 0.1 µM): 86.9%
viability, T/C [8]: 88.7%
viability, T/C (second compound 1 µM, first compound 1 µM): 85.4%
viability, T/C (second compound 1 µM, first compound 3.16 µM): 84%
viability, T/C (second compound 1 µM, first compound 10 µM): 88.1%
viability, T/C [9]: 116%
viability, T/C (second compound 3.16 µM, first compound 0.1 µM): 102%
viability, T/C [10]: 129%
viability, T/C (second compound 3.16 µM, first compound 1 µM): 100%
viability, T/C (second compound 3.16 µM, first compound 3.16 µM): 108%
viability, T/C (second compound 3.16 µM, first compound 10 µM): 92.8%
viability, T/C [11]: 88.3%
viability, T/C (second compound 10 µM, first compound 0.1 µM): 133%
viability, T/C [12]: 108%
viability, T/C (second compound 10 µM, first compound 1 µM): 133%
viability, T/C (second compound 10 µM, first compound 3.16 µM): 104%
viability, T/C (second compound 10 µM, first compound 10 µM): 94.6%

CCc1c2c(nc3ccc(O)cc13)-c1cc3c(c(=O)n1C2)COC(=O)[C@]3(O)CC + Cc1[nH]c2ccc(F)cc2c1-c1nc2c3cccnc3c3ncccc3c2[nH]1
IC50 (second compound 0.0316 µM): 7.56 nM
IC50 (second compound 0.1 µM): 8.08 nM
IC50 (second compound 0.316 µM): 6.62 nM
IC50 (second compound 1 µM): 8.02 nM
IC50 (second compound 3.16 µM): 7.57 nM
IC50 (second compound 10 µM): 6.77 nM
viability, T/C [13]: 91.8%
viability, T/C [14]: 68.3%
viability, T/C [15]: 48.7%
viability, T/C [1]: 22.1%
viability, T/C [16]: 25.9%
viability, T/C [2]: 32.9%
viability, T/C [17]: 103%
viability, T/C [18]: 81.9%
viability, T/C [19]: 44.2%
viability, T/C [3]: 24.4%
viability, T/C [20]: 25.4%
viability, T/C [4]: 33%
viability, T/C [21]: 119%
viability, T/C [22]: 76.1%
viability, T/C [23]: 36.6%
viability, T/C [5]: 23.4%
viability, T/C [24]: 24.6%
viability, T/C [6]: 36.5%
viability, T/C [25]: 101%
viability, T/C [26]: 82.4%
viability, T/C [27]: 43.4%
viability, T/C [7]: 24.3%
viability, T/C [28]: 22.6%
viability, T/C [8]: 32.1%
viability, T/C [29]: 105%
viability, T/C [30]: 67.2%
viability, T/C [31]: 53.6%
viability, T/C [9]: 15.6%
viability, T/C [32]: 31.4%
viability, T/C [10]: 28.9%
viability, T/C [33]: 102%
viability, T/C [34]: 65.4%
viability, T/C [35]: 48.5%
viability, T/C [11]: 18.8%
viability, T/C [36]: 22.9%
viability, T/C [12]: 33.6%

Cn1ncnc1[C@H]1c2n[nH]c(=O)c3cc(F)cc(c23)N[C@@H]1c1ccc(F)cc1 + CN(C)c1ccc(Nc2c3ccc(NC(=O)CCN4CCCC4)cc3nc3cc(NC(=O)CCN4CCCC4)ccc23)cc1
IC50 (second compound 0.0316 µM): > 316 nM
IC50 (second compound 0.1 µM): > 316 nM
IC50 (second compound 0.316 µM): 222 nM
IC50 (second compound 1 µM): > 316 nM
IC50 (second compound 3.16 µM): > 316 nM
IC50 (second compound 10 µM): > 316 nM
viability, T/C [13]: 98.4%
viability, T/C [14]: 83.2%
viability, T/C [15]: 68.9%
viability, T/C [1]: 79.6%
viability, T/C [16]: 95.2%
viability, T/C [2]: 60.4%
viability, T/C [17]: 111%
viability, T/C [18]: 93.7%
viability, T/C [19]: 98.1%
viability, T/C [3]: 90.1%
viability, T/C [20]: 91.8%
viability, T/C [4]: 55.4%
viability, T/C [21]: 97.4%
viability, T/C [22]: 85.7%
viability, T/C [23]: 91.7%
viability, T/C [5]: 111%
viability, T/C [24]: 84.4%
viability, T/C [6]: 34.7%
viability, T/C [25]: 93.6%
viability, T/C [26]: 108%
viability, T/C [27]: 96%
viability, T/C [7]: 92.1%
viability, T/C [28]: 109%
viability, T/C [8]: 60.1%
viability, T/C [29]: 78%
viability, T/C [30]: 83.5%
viability, T/C [31]: 109%
viability, T/C [9]: 106%
viability, T/C [32]: 105%
viability, T/C [10]: 72.2%
viability, T/C [33]: 108%
viability, T/C [34]: 118%
viability, T/C [35]: 123%
viability, T/C [11]: 107%
viability, T/C [36]: 98.5%
viability, T/C [12]: 83%
